Test results taken from PubChem BioAssay (NCI).
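Briefly, cells in 96-well plates were exposed to five compound concentrations for 48 h, and endpoints were estimated by linear interpolation. TGI: concentration producing complete growth inhibition.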

What was measured:
Experiment in all cases: NCI tumour cell line growth inhibition, 48 h
[1] = tested on: A549 NSCLC
[2] = tested on: ACHN renal
[3] = tested on: MCF7 breast
[4] = tested on: NCI-H460 lung
[5] = tested on: SR leukemia
[6] = tested on: SNB-78 CNS
[7] = tested on: KM20L2 colon
[8] = tested on: LXFL 529 NSCLC
[9] = tested on: 786-0 renal
[10] = tested on: OVCAR-5 ovarian
[11] = tested on: MOLT-4 leukemia
[12] = tested on: RXF-631 renal
[13] = tested on: DU-145 prostate
[14] = tested on: SNB-19 CNS
[15] = tested on: M14 melanoma
[16] = tested on: K-562 leukemia
[17] = tested on: EKVX NSCLC
[18] = tested on: OVCAR-8 ovarian
[19] = tested on: HCC-2998 colon
[20] = tested on: UO-31 renal
[21] = tested on: OVCAR-4 ovarian
[22] = tested on: DMS 273 small cell lung
[23] = tested on: TK-10 renal
[24] = tested on: HCT-116 colon
[25] = tested on: HOP-18 NSCLC
[26] = tested on: SF-295 CNS
[27] = tested on: UACC-62 melanoma
[28] = tested on: U251 CNS
[29] = tested on: OVCAR-3 ovarian
[30] = tested on: NCI-H522 lung
[31] = tested on: M19-MEL melanoma
[32] = tested on: PC-3 prostate
[33] = tested on: CCRF-CEM leukemia
[34] = tested on: DLD-1 colon
[35] = tested on: SF-539 CNS
[36] = tested on: NCI-H23 lung
[37] = tested on: MDA-MB-231 breast
[38] = tested on: SW-620 colon
[39] = tested on: DMS 114 small cell lung
[40] = tested on: HOP-62 NSCLC
[41] = tested on: LOX IMVI melanoma
[42] = tested on: NCI-H226 lung
[43] = tested on: A498 renal
[44] = tested on: CAKI-1 renal
[45] = tested on: KM12 colon
[46] = tested on: HCT-15 colon
[47] = tested on: SN12C renal
[48] = tested on: HS 578T breast
[49] = tested on: IGROV1 ovarian
[50] = tested on: SK-MEL-5 melanoma
[51] = tested on: RXF 393 renal
[52] = tested on: UACC-257 melanoma
[53] = tested on: HT29 colon
[54] = tested on: COLO 205 colon
[55] = tested on: BT-549 breast
[56] = tested on: SK-OV-3 ovarian
[57] = tested on: SK-MEL-28 melanoma
[58] = tested on: MDA-N
[59] = tested on: MDA-MB-435
[60] = tested on: XF 498 CNS
[61] = tested on: RPMI-8226 leukemia
[62] = tested on: SNB-75 CNS
[63] = tested on: MALME-3M melanoma
[64] = tested on: HL-60(TB) leukemia
[65] = tested on: SF-268 CNS
[66] = tested on: HOP-92 NSCLC
[67] = tested on: SK-MEL-2 melanoma

O=C1C(Br)=C(c2ccccc2)C(c2ccccc2)=C1c1ccccc1
TGI [1]: 28.1 µM
TGI [2]: 6.51 µM
TGI [3]: 7.68 µM
TGI [4]: 18 µM
TGI [5]: 3.78 µM
TGI [6]: 4.26 µM
TGI [7]: 13.1 µM
TGI [8]: 2.84 µM
TGI [9]: 4.26 µM
TGI [10]: 25.5 µM
TGI [11]: 3.74 µM
TGI [12]: 13.1 µM
TGI [13]: 25.9 µM
TGI [14]: 24.2 µM
TGI [15]: 4.46 µM
TGI [16]: 9.93 µM
TGI [17]: 18 µM
TGI [18]: 4.46 µM
TGI [19]: 15.9 µM
TGI [20]: 12.8 µM
TGI [21]: 4.98 µM
TGI [22]: 3.68 µM
TGI [23]: 7.12 µM
TGI [24]: 3.6 µM
TGI [25]: 14.9 µM
TGI [26]: 23.5 µM
TGI [27]: 5.73 µM
TGI [28]: 9.83 µM
TGI [29]: 6.37 µM
TGI [30]: 1.77 µM
TGI [31]: 5.58 µM
TGI [32]: 16.2 µM
TGI [33]: 2.02 µM
TGI [34]: 3.66 µM
TGI [35]: 8.07 µM
TGI [36]: 10.5 µM
TGI [37]: 6.05 µM
TGI [38]: 3.26 µM
TGI [39]: 5.03 µM
TGI [40]: 23 µM
TGI [41]: 2.94 µM
TGI [42]: 21.8 µM
TGI [43]: 29.9 µM
TGI [44]: 6.06 µM
TGI [45]: 18.5 µM
TGI [46]: 4.03 µM
TGI [47]: 3.85 µM
TGI [48]: 40.5 µM
TGI [49]: 10.6 µM
TGI [50]: 9.35 µM
TGI [51]: 3.92 µM
TGI [52]: 9.67 µM
TGI [53]: 5.15 µM
TGI [54]: 3.69 µM
TGI [55]: 10.9 µM
TGI [56]: 29.3 µM
TGI [57]: 6.75 µM
TGI [58]: 9.61 µM
TGI [59]: 12.5 µM
TGI [60]: 3.65 µM
TGI [61]: 5.22 µM
TGI [62]: 12.9 µM
TGI [63]: 3.33 µM
TGI [64]: 2.31 µM
TGI [65]: 7.52 µM
TGI [66]: 3.84 µM
TGI [67]: 14.4 µM
